Results published in ChEMBL document CHEMBL4507317, “Data for DCP probe BAY-899” (2021).

Columns and labels:
[1] = molecular target: LIM domain kinase 1 (Homo sapiens) (UniProt P53667); conditions: Compound concentration 1000.0 nM
[2] = molecular target: Serine/threonine-protein kinase SIK3 (Homo sapiens) (UniProt Q9Y2K2); conditions: Compound concentration 1000.0 nM
[3] = molecular target: Serine/threonine-protein kinase/endoribonuclease IRE1 (Homo sapiens) (UniProt O75460); conditions: Compound concentration 1000.0 nM
[4] = test system: Receptor-type tyrosine-protein kinase FLT3 (Homo sapiens), P36888 [UNDEFINED MUTATION]; conditions: Compound concentration 1000.0 nM
[5] = molecular target: Tyrosine-protein kinase ITK/TSK (Homo sapiens) (UniProt Q08881); conditions: Compound concentration 1000.0 nM
[6] = molecular target: MAP kinase-activated protein kinase 5 (Homo sapiens) (UniProt Q8IW41); conditions: Compound concentration 1000.0 nM
[7] = molecular target: Serine/threonine-protein kinase DCLK2 (Homo sapiens) (UniProt Q8N568); conditions: Compound concentration 1000.0 nM
[8] = test system: Receptor-type tyrosine-protein kinase FLT3 (Homo sapiens), P36888 [UNDEFINED MUTATION]; conditions: Compound concentration 1000.0 nM; remark: listed apart in the source
[9] = molecular target: Mitogen-activated protein kinase kinase kinase kinase 4 (Homo sapiens) (UniProt O95819); conditions: Compound concentration 1000.0 nM
[10] = molecular target: High affinity nerve growth factor receptor (Homo sapiens) (UniProt P04629); conditions: Compound concentration 1000.0 nM
[11] = molecular target: Cyclin-dependent kinase 2 (Homo sapiens) (UniProt P24941); conditions: Compound concentration 1000.0 nM
[12] = molecular target: Microtubule-associated serine/threonine-protein kinase 1 (Homo sapiens) (UniProt Q9Y2H9); conditions: Compound concentration 1000.0 nM
[13] = test system: Epidermal growth factor receptor (Homo sapiens), P00533 [UNDEFINED MUTATION]; conditions: Compound concentration 1000.0 nM
[14] = molecular target: Tyrosine-protein kinase FRK (Homo sapiens) (UniProt P42685); conditions: Compound concentration 1000.0 nM
[15] = test system: Phosphatidylinositol 4,5-bisphosphate 3-kinase catalytic subunit alpha isoform (Homo sapiens), P42336 [I800L]; conditions: Compound concentration 1000.0 nM
[16] = molecular target: MAP kinase-interacting serine/threonine-protein kinase 1 (Homo sapiens) (UniProt Q9BUB5); conditions: Compound concentration 1000.0 nM
[17] = test system: Proto-oncogene tyrosine-protein kinase receptor Ret (Homo sapiens), P07949 [M918T]; conditions: Compound concentration 1000.0 nM
[18] = molecular target: Kappa-type opioid receptor (Homo sapiens, UniProt P41145); conditions: Compound concentration 10.0 uM
[19] = molecular target: Receptor tyrosine-protein kinase erbB-3 (Homo sapiens) (UniProt P21860); conditions: Compound concentration 1000.0 nM
[20] = molecular target: Serine/threonine-protein kinase PLK4 (Homo sapiens) (UniProt O00444); conditions: Compound concentration 1000.0 nM
[21] = molecular target: Epithelial discoidin domain-containing receptor 1 (Homo sapiens) (UniProt Q08345); conditions: Compound concentration 1000.0 nM
[22] = molecular target: Serine/threonine-protein kinase 32A (Homo sapiens) (UniProt Q8WU08); conditions: Compound concentration 1000.0 nM
[23] = molecular target: Mitogen-activated protein kinase kinase kinase 11 (Homo sapiens) (UniProt Q16584); conditions: Compound concentration 1000.0 nM
[24] = molecular target: Non-receptor tyrosine-protein kinase TYK2 (Homo sapiens) (UniProt P29597); conditions: Compound concentration 1000.0 nM
[25] = molecular target: Histamine H4 receptor (Homo sapiens) (UniProt Q9H3N8); conditions: Compound concentration 10.0 uM
[26] = molecular target: Serine/threonine-protein kinase SIK1 (Homo sapiens) (UniProt P57059); conditions: Compound concentration 1000.0 nM
[27] = molecular target: 1-phosphatidylinositol 3-phosphate 5-kinase (Homo sapiens) (UniProt Q9Y2I7); conditions: Compound concentration 1000.0 nM
[28] = molecular target: Serine/threonine-protein kinase D3 (Homo sapiens) (UniProt O94806); conditions: Compound concentration 1000.0 nM
[29] = molecular target: Fibroblast growth factor receptor 4 (Homo sapiens) (UniProt P22455); conditions: Compound concentration 1000.0 nM
[30] = molecular target: Cyclin-dependent kinase 11B (Homo sapiens) (UniProt P21127); conditions: Compound concentration 1000.0 nM
[31] = molecular target: Calcium/calmodulin-dependent protein kinase type 1 (Homo sapiens) (UniProt Q14012); conditions: Compound concentration 1000.0 nM
[32] = molecular target: Casein kinase I isoform gamma-1 (Homo sapiens) (UniProt Q9HCP0); conditions: Compound concentration 1000.0 nM
[33] = test system: Epidermal growth factor receptor (Homo sapiens), P00533 [T790M]; conditions: Compound concentration 1000.0 nM
[34] = molecular target: Protein kinase C eta type (Homo sapiens) (UniProt P24723); conditions: Compound concentration 1000.0 nM
[35] = molecular target: Tyrosine-protein kinase Srms (Homo sapiens) (UniProt Q9H3Y6); conditions: Compound concentration 1000.0 nM
[36] = test system: Phosphatidylinositol 4,5-bisphosphate 3-kinase catalytic subunit alpha isoform (Homo sapiens), P42336 [E545A]; conditions: Compound concentration 1000.0 nM
[37] = molecular target: Myotonin-protein kinase (Homo sapiens) (UniProt Q09013); conditions: Compound concentration 1000.0 nM
[38] = molecular target: Phosphatidylinositol 4-phosphate 5-kinase type-1 gamma (Homo sapiens) (UniProt O60331); conditions: Compound concentration 1000.0 nM
[39] = molecular target: Histamine H1 receptor (Homo sapiens) (UniProt P35367); conditions: Compound concentration 10.0 uM
[40] = molecular target: cGMP-dependent protein kinase 2 (Homo sapiens) (UniProt Q13237); conditions: Compound concentration 1000.0 nM
[41] = molecular target: Vascular endothelial growth factor receptor 1 (Homo sapiens) (UniProt P17948); conditions: Compound concentration 1000.0 nM
[42] = molecular target: Tyrosine-protein kinase JAK1 (Homo sapiens) (UniProt P23458); conditions: Compound concentration 1000.0 nM
[43] = molecular target: Dual specificity protein kinase CLK4 (Homo sapiens) (UniProt Q9HAZ1); conditions: Compound concentration 1000.0 nM
[44] = molecular target: NUAK family SNF1-like kinase 1 (Homo sapiens) (UniProt O60285); conditions: Compound concentration 1000.0 nM

Receptor-type tyrosine-protein kinase FLT3 (Homo sapiens), P36888 [UNDEFINED MUTATION], sequence (P36888 whole entry, looked up, change not shown): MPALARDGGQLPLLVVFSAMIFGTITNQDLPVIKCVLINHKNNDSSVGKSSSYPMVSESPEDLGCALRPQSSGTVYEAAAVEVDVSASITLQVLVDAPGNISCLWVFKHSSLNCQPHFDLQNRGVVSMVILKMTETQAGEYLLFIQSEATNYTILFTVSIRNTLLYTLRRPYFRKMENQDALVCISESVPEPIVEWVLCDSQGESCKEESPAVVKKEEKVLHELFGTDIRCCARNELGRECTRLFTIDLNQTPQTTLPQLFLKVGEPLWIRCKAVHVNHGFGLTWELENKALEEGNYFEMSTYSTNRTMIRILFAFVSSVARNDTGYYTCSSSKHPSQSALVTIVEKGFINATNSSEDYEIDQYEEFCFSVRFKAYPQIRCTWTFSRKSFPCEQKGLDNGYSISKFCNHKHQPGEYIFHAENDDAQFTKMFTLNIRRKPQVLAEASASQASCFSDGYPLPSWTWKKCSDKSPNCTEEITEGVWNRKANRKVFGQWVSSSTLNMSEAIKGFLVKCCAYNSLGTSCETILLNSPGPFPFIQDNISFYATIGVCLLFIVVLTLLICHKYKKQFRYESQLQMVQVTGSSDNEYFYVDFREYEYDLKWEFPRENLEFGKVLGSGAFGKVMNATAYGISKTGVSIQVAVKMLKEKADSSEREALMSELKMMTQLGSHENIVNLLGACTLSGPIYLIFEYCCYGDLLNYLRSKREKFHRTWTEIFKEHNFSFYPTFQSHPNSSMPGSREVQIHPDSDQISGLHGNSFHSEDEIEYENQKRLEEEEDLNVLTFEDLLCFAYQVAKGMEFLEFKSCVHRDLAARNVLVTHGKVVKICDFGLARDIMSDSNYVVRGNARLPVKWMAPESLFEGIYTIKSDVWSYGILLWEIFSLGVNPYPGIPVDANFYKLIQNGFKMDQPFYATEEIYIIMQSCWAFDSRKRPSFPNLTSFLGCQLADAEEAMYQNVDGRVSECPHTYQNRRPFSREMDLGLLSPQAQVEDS
Protein kinase C eta type (Homo sapiens), sequence (P24723 whole entry): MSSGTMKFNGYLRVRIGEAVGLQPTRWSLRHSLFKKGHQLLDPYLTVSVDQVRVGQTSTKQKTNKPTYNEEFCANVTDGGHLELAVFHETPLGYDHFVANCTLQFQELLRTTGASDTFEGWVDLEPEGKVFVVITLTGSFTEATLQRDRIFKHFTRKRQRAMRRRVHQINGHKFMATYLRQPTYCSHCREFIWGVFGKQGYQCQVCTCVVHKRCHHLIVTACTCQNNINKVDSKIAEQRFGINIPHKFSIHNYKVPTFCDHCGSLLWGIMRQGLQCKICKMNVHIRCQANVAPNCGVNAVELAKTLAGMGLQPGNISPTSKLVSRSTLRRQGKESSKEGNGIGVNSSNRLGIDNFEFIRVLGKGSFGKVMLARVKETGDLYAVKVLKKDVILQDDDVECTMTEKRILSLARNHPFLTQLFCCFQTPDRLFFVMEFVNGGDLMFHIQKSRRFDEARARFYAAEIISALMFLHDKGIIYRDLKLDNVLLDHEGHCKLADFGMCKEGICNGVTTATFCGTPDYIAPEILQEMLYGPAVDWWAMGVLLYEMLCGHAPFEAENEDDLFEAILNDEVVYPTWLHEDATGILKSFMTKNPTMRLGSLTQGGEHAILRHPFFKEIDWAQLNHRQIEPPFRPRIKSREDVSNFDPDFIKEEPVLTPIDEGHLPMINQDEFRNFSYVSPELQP
Histamine H1 receptor (Homo sapiens), sequence (P35367 whole entry): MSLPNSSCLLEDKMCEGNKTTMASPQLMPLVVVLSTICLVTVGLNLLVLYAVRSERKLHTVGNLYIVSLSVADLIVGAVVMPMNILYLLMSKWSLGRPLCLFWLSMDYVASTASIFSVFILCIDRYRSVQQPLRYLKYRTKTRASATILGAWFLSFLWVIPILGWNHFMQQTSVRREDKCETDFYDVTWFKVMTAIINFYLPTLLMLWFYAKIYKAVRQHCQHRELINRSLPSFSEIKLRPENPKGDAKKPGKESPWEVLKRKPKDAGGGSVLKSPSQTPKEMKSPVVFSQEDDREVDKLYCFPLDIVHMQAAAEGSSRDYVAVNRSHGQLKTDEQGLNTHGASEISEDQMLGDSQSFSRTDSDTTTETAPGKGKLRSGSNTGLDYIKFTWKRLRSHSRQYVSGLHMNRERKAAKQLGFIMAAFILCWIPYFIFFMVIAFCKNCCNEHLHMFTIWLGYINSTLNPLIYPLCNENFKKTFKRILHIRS
Microtubule-associated serine/threonine-protein kinase 1 (Homo sapiens), sequence (Q9Y2H9 whole entry, looked up): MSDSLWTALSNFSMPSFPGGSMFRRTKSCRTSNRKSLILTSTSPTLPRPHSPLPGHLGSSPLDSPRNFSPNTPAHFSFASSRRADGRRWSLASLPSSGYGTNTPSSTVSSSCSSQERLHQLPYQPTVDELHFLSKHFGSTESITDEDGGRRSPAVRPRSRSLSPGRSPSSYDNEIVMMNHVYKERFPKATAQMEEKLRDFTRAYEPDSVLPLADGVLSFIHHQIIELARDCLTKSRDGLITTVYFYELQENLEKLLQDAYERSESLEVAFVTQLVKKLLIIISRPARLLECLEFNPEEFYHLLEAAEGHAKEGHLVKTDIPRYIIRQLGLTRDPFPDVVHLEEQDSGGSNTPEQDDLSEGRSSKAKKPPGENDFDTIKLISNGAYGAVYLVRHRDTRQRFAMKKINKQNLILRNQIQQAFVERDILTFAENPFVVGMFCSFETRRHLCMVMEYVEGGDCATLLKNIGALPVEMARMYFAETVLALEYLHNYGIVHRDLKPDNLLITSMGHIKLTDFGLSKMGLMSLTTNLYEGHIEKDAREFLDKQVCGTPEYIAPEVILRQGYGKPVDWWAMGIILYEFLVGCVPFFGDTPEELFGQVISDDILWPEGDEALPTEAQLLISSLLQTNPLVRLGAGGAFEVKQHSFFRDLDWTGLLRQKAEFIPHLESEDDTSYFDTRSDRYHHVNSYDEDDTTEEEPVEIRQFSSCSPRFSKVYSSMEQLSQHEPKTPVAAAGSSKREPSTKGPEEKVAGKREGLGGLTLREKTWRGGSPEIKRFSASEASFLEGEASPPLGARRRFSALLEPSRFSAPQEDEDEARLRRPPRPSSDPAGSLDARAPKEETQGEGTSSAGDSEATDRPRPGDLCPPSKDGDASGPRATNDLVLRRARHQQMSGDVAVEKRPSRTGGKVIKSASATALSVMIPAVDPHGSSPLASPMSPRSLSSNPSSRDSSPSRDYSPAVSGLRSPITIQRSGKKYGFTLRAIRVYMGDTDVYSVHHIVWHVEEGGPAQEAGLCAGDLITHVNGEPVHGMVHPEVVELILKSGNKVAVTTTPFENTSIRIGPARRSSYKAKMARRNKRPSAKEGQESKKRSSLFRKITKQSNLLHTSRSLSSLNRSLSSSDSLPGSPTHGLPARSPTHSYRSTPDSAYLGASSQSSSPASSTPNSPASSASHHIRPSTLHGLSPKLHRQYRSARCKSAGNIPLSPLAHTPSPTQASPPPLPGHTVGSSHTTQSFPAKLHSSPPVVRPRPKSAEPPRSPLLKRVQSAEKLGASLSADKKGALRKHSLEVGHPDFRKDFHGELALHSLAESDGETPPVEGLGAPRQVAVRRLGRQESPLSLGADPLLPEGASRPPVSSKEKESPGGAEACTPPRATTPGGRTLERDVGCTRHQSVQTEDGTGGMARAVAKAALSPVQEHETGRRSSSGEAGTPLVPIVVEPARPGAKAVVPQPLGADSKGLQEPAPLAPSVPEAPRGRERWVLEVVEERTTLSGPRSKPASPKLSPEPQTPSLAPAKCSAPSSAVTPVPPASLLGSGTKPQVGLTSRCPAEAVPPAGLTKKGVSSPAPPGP
Epithelial discoidin domain-containing receptor 1 (Homo sapiens), sequence (Q08345 whole entry, the tested form may be a part): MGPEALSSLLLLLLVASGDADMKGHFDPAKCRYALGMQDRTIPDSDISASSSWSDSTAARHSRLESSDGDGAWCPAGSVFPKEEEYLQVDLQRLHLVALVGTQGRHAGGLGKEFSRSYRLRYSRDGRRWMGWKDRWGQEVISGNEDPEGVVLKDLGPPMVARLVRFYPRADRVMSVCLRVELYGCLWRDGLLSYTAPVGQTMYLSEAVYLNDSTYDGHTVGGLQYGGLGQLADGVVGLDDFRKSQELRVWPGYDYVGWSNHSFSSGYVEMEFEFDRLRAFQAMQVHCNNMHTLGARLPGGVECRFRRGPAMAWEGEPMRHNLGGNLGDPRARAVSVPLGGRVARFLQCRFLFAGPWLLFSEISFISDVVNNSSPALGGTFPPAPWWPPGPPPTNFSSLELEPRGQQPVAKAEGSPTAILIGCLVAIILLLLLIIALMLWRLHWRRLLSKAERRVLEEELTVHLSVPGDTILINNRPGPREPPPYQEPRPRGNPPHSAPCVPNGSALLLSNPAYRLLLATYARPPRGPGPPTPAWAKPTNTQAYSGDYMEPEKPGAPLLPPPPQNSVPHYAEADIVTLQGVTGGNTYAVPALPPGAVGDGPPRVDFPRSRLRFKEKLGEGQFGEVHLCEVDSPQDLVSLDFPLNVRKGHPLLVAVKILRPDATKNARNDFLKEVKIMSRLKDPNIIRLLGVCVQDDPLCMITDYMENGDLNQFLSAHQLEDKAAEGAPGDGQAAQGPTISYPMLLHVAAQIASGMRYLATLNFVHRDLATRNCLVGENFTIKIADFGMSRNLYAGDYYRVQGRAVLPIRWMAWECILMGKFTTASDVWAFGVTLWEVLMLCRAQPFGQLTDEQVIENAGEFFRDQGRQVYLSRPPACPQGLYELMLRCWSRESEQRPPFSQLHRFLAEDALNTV
Histamine H4 receptor (Homo sapiens), sequence (Q9H3N8 whole entry): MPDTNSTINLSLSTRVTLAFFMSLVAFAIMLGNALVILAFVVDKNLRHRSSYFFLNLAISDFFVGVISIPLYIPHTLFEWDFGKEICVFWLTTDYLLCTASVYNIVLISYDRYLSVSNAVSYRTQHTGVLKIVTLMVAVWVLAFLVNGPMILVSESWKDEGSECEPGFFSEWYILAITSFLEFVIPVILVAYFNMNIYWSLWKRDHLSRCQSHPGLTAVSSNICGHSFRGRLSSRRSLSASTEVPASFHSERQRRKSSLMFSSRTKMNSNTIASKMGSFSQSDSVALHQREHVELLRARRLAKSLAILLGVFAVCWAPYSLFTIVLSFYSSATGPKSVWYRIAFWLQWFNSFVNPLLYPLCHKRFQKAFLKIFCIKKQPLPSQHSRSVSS

O=C(Nc1ccc(Oc2ccc(F)cc2)cc1)N1CCc2ncccc2[C@H]1c1ccc(F)cc1 [BAY-897]
residual activity [1]: 85%
residual activity [2]: 100%
residual activity [3]: 85%
residual activity [4]: 99%
residual activity [5]: 96%
residual activity [6]: 75%
residual activity [7]: 87%
residual activity [8]: 93%
residual activity [9]: 100%
residual activity [10]: 85%
residual activity [11]: 90%
residual activity [12]: 79%
residual activity [13]: 100%
residual activity [14]: 93%
residual activity [15]: 66%
residual activity [16]: 95%
residual activity [17]: 100%
inhibition [18]: 79.3%
residual activity [19]: 100%
residual activity [20]: 94%
residual activity [21]: 100%
residual activity [22]: 100%
residual activity [23]: 78%
residual activity [24]: 95%
inhibition [25]: 7.56%
residual activity [26]: 99%
residual activity [27]: 95%
residual activity [28]: 98%
residual activity [29]: 95%
residual activity [30]: 89%
residual activity [31]: 70%
residual activity [32]: 90%
residual activity [33]: 87%
residual activity [34]: 93%
residual activity [35]: 94%
residual activity [36]: 100%
residual activity [37]: 91%
residual activity [38]: 96%
inhibition [39]: 15.9%
residual activity [40]: 100%
residual activity [41]: 100%
residual activity [42]: 94%
residual activity [43]: 100%
residual activity [44]: 92%

O=C(Nc1cnc(Oc2ccc(F)cc2)nc1)N1CCc2ncccc2[C@@H]1c1ccc(F)cc1 [BAY-899]
residual activity [1]: 99%
residual activity [2]: 86%
residual activity [3]: 85%
residual activity [4]: 92%
residual activity [5]: 90%
residual activity [6]: 91%
residual activity [7]: 90%
residual activity [8]: 100%
residual activity [9]: 86%
residual activity [10]: 100%
residual activity [11]: 100%
residual activity [12]: 96%
residual activity [13]: 100%
residual activity [14]: 98%
residual activity [15]: 69%
residual activity [16]: 95%
residual activity [17]: 95%
inhibition [18]: 56.3%
residual activity [19]: 100%
residual activity [20]: 100%
residual activity [21]: 95%
residual activity [22]: 100%
residual activity [23]: 83%
residual activity [24]: 97%
inhibition [25]: -4.41%
residual activity [26]: 88%
residual activity [27]: 63%
residual activity [28]: 84%
residual activity [29]: 98%
residual activity [30]: 94%
residual activity [31]: 73%
residual activity [32]: 99%
residual activity [33]: 91%
residual activity [34]: 76%
residual activity [35]: 95%
residual activity [36]: 98%
residual activity [37]: 98%
residual activity [38]: 100%
inhibition [39]: 5.89%
residual activity [40]: 100%
residual activity [41]: 88%
residual activity [42]: 86%
residual activity [43]: 100%
residual activity [44]: 95%
